{"source": "patent US12384797B2", "about": "“Thioeno[3,2-b] pyridin-7-amine compounds for treating familial dysautonomia” (PTC THERAPEUTICS, INC., priority 2019, dated 2025)"}
{"tested_on": "Elongator complex protein 1 (ELP1, also referred to as IKBKAP)", "assay": "IKBKAP-HTRF assay (IKBKAP protein in lysates of FD patient-derived fibroblasts)", "type": "cell-based, human", "conditions": "48 hours incubation, 7-point concentration curve", "procedure,_shortened": "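FD patient-derived fibroblasts (10,000/well) were treated 48 h at 37 °C with a 7-point, 3.16-fold compound series in triplicate, then lysed. IKBKAP was read by sandwich HTRF (donor/acceptor anti-IKAP antibodies, overnight at 4 °C, 665/620 nm). MFI is ΔF over vehicle ΔF; EC2x is the concentration giving twice the vehicle IKBKAP level.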"}
{"smiles": "CC[C@H](N)Cc1sc2c(NCc3nccs3)cc(Cl)nc2c1Br", "note": "[Compound 78, 2-[(2S)-2-aminobutyl]-3-bromo-5-chloro-N-[(1,3-thiazol-2-yl)methyl]thieno[3,2-b]pyridin-7-amine]", "EC2x for IKBKAP protein expression (concentration producing two times the amount of IKBKAP protein vs DMSO vehicle control)": "***** (≤0.005 μM is indicated by five stars (*****))", "MFI (maximum fold increase in IKBKAP protein abundance relative to the vehicle control)": "***** (>4.9 is indicated by five stars (*****))"}
{"smiles": "N[C@@H](CO)Cc1sc2c(NCc3ccco3)cc(Cl)nc2c1Cl", "note": "[Compound 39, (2R)-2-amino-3-(3,5-dichloro-7-{[(furan-2-yl)methyl]amino}thieno[3,2-b]pyridin-2-yl)propan-1-ol]", "EC2x for IKBKAP protein expression (concentration producing two times the amount of IKBKAP protein vs DMSO vehicle control)": "***** (≤0.005 μM is indicated by five stars (*****))", "MFI (maximum fold increase in IKBKAP protein abundance relative to the vehicle control)": "***** (>4.9 is indicated by five stars (*****))"}
{"smiles": "Cc1c(C[C@@H](N)C(=O)Nc2ccnn2C)sc2c(NCc3ccco3)cc(Cl)nc12", "note": "[Compound 145, 3-(5-chloro-7-{[(furan-2-yl)methyl]amino}-3-methylthieno[3,2-b]pyridin-2-yl)-N-(1-methyl-1H-pyrazol-5-yl)-D-alaninamide]", "EC2x for IKBKAP protein expression (concentration producing two times the amount of IKBKAP protein vs DMSO vehicle control)": "*** (between >0.02 μM and ≤0.5 μM is indicated by three stars (***))", "MFI (maximum fold increase in IKBKAP protein abundance relative to the vehicle control)": "***** (>4.9 is indicated by five stars (*****))"}
{"smiles": "N[C@@H](CF)Cc1sc2c(NCc3nccs3)cc(Cl)nc2c1Cl", "note": "[Compound 90, 2-[(2R)-2-amino-3-fluoropropyl]-3,5-dichloro-N-[(1,3-thiazol-2-yl)methyl]thieno[3,2-b]pyridin-7-amine]", "EC2x for IKBKAP protein expression (concentration producing two times the amount of IKBKAP protein vs DMSO vehicle control)": "***** (≤0.005 μM is indicated by five stars (*****))", "MFI (maximum fold increase in IKBKAP protein abundance relative to the vehicle control)": "***** (>4.9 is indicated by five stars (*****))"}
{"smiles": "CN[C@@H](C)c1sc2c(NCc3ccco3)cc(Cl)nc2c1C", "note": "[Compound 26, 5-chloro-N-[(furan-2-yl)methyl]-3-methyl-2-[(1S)-1-(methylamino)ethyl]thieno[3,2-b]pyridin-7-amine]", "EC2x for IKBKAP protein expression (concentration producing two times the amount of IKBKAP protein vs DMSO vehicle control)": "*** (between >0.02 μM and ≤0.5 μM is indicated by three stars (***))", "MFI (maximum fold increase in IKBKAP protein abundance relative to the vehicle control)": "**** (between >3.9 and ≤4.9 is indicated by four stars (****))"}
{"smiles": "C[C@H](N)Cc1sc2c(NCc3nccs3)cc(Cl)nc2c1Br", "note": "[Compound 43, 2-[(2S)-2-aminopropyl]-3-bromo-5-chloro-N-[(1,3-thiazol-2-yl)methyl]thieno[3,2-b]pyridin-7-amine]", "EC2x for IKBKAP protein expression (concentration producing two times the amount of IKBKAP protein vs DMSO vehicle control)": "***** (≤0.005 μM is indicated by five stars (*****))", "MFI (maximum fold increase in IKBKAP protein abundance relative to the vehicle control)": "***** (>4.9 is indicated by five stars (*****))"}
{"smiles": "C[C@@H](O)[C@H](N)Cc1sc2c(NCc3ccco3)cc(Cl)nc2c1Br", "note": "[Compound 165, (2R,3R)-3-amino-4-(3-bromo-5-chloro-7-{[(furan-2-yl)methyl]amino}thieno[3,2-b]pyridin-2-yl)butan-2-ol]", "EC2x for IKBKAP protein expression (concentration producing two times the amount of IKBKAP protein vs DMSO vehicle control)": "***** (≤0.005 μM is indicated by five stars (*****))", "MFI (maximum fold increase in IKBKAP protein abundance relative to the vehicle control)": "***** (>4.9 is indicated by five stars (*****))"}
{"smiles": "C[C@H](N)C(=O)c1sc2c(NCc3cccs3)cc(Cl)nc2c1Br", "note": "[Compound 156, (2S)-2-amino-1-(3-bromo-5-chloro-7-{[(thiophen-2-yl)methyl]amino}thieno[3,2-b]pyridin-2-yl)propan-1-one]", "EC2x for IKBKAP protein expression (concentration producing two times the amount of IKBKAP protein vs DMSO vehicle control)": "*** (between >0.02 μM and ≤0.5 μM is indicated by three stars (***))", "MFI (maximum fold increase in IKBKAP protein abundance relative to the vehicle control)": "*** (between >2.9 and ≤3.9 is indicated by three stars (***))"}
